The subject of data set [1] is unstressed L. plantarum 3297 cells from conic colonies. Briefly: Cold-shock colony filtrate assay: consolidated circular bundle formation in unstressed conic colony cells. In kind it is cell-based. To be noted: cells pre-incubated with lithium chloride (5M) before CSCF. As for the experimental part:
An assay was developed to see if the cold-stressed conic colony (−17° C. for 1 h) extracts could potentiate consolidated bundling in unstressed conic colony cells. Briefly, 1 mL of suspension from harvested cold-stressed (treated) and unstressed (control) conic colonies (approximately 5-6 colonies) were resuspended in PBS, vortexed, and sonicated. The extracts were filtered using a 0.2 μm membrane filter to remove the cells. The filtrate was named cold-shock colony filtrates (CSCF). Simultaneously, 1 mL cells from the unstressed colonies were vortexed, sonicated, and pelleted. To these pelleted unstressed cells, 1 mL of CSCF was added, aspirated, and incubated at 37° C. for 3 h. At the same time, colony filtrates (CF) from the unstressed colony and heat-treated (60° C. for 30 min) CSCF were prepared and tested. Following incubation, the aggregation pattern was scrutinized under Nikon fluorescent microscope (Nikon Eclipse Ti2, Japan). As a negative control, one vial of unstressed cells was incubated with 5M lithium chloride ([…]) for 30 min before adding 1 mL of CSCF. […] abolishes the S-layer protein and stalls the ability of the cells to aggregate to form bundles.

In data set [2] the test system is C. albicans. The data set is described as follows: C. albicans biofilm inhibition assay (crystal violet). In kind it is cell-based. Conditions: for effect of pure ketone on C. albicans biofilms: dose not stated. On the procedure: (§1) Biofilm inhibition assay: Biofilm inhibition assays were conducted in 96-well polystyrene microtiter plates (Tarsons Products Pvt. Ltd. India) as previously described. Briefly, bacterial or yeast cells were cultured overnight in LB or PDB and re-inoculated in fresh LB or PDB (1:100 dilution) (with 0.05% glucose) with and without supplementation of postbiotics (5% or 10% v/v) at 37° C. After 24 h of incubation, biofilms were stained with crystal violet (0.1%) for 20 min, washed repeatedly, and the residual biofilm cells (attached to the polystyrene surfaces) were dissolved in 95% ethanol. The planktonic growth was measured at 600 nm, while the biofilms were measured at 575 nm using a Biowave CO8000 cell density meter. For microscopic imaging of biofilms attached to the polystyrene surfaces, the wells were stained with SYTO® 9 dye, and imaged under Nikon fluorescent microscope (Nikon Eclipse Ti2, Japan) using a GFP emission filter.

Data set [3] relates to C. elegans. The data set is described as follows: C. elegans toxicity assay. In kind it is in vivo. Conditions: 2-undecanone 0.1%, 7 days. As for the experimental part: C. elegans toxicity assay: C. elegans wild-type strains were maintained on nematode growth medium (NGM) with E. coli OP50 as the feed. […] The control and treatment groups (each consisting of approximately 30 nematodes per well) were suspended in liquid M9 buffer and monitored for 7 days. The live or dead nematodes were counted using the Nikon fluorescent microscope (Nikon Eclipse Ti2, Japan) using a DIC and DAPi (blue LED light) filters and the survival percentage was calculated.

For data set [4], the system named is C. albicans. Briefly: Yeast-hyphae switching assay. It counts as cell-based. To be noted: liquid RPMI media. As for the experimental part: Yeast-hyphae switching assay: Yeast-hyphae (Y-H) switching assays were conducted in liquid RPMI-1640 medium as previously described. Briefly, overnights cultures of C. albicans (grown in PDB) were diluted to a 1:100 in RPMI-1640 and treated with or without UP/CSP ([…]) or ketones (0.005%-0.1%). The cultures were then incubated at 37° C. with shaking (150 rpm). Following incubation, 5 μL of the cultures were transferred to the microscopic slide and imaged under Nikon fluorescent microscope (Nikon Eclipse Ti2, Japan).

Data set [5] deals with C. albicans. Briefly: C. elegans infected with C. albicans, treated with 2-undecanone. It counts as in vivo. Conditions: 2-undecanone 0.01%, 7 days; infected untreated 20% survival. On the procedure: C. elegans co-infection assays: Wild-type C. elegans were maintained on nematode growth medium (NGM) with E. coli OP50 as the feed, and synchronization was performed as described previously^35. Briefly, C. elegans were collected by aspiration and bleached with 2% sodium hypochlorite and 0.5 N sodium hydroxide to get the eggs. Eggs were transferred to 48-well microliter plates and were incubated for 24 h at 22° C. for hatching. The hatched juveniles were transferred to new E. coli OP50 plates and incubated for 5-7 days to obtain adult nematode. Adults were subsequently used for toxicity, and bacterial or C. albicans colonization assays. For C. albicans infection of C. elegans, the adult nematodes, previously fed on E. coli OP50, were transferred to a C. albicans lawn on NGM agar plate for 4 h. After 4 h, the nematodes were collected in M9 buffer, pipetted into a 96-well, and survival monitored for 7 days. […] The live and dead nematodes were counted under bright-field, and DAPi filter and the nematode survival rates were estimated and plotted. The images of C. elegans were acquired using a Nikon fluorescent microscope (Nikon Eclipse Ti2, Japan).
The present inventors further tested whether 2-undecanone could suppress C. albicans pathogenicity in a C. elegans model by infecting C. elegans with C. albicans.

Data set [6] concerns C. albicans. The data set is described as follows: C. albicans growth profile. In kind it is cell-based. On the procedure: as §1, with “Briefly, bacterial or yeast cells were cultured overnight in LB or PDB and re-inoculated in fresh LB or PDB (1:100 dilution) (with 0.05% glucose) with and without supplementation of postbiotics (5% or 10% v/v) at 37° C.” left out

Turning to `[Cl-].[Li+]` [lithium chloride], the “circular bundle formation induced by CSCF” value in data set [1] is reported as “prevented”.
Turning to `CCCCCCCCCC(C)=O` [2-undecanone], in data set [2] (0.005%, PDB, polystyrene), the “C. albicans biofilm formation” value is reported as “successful in preventing the biofilm formation”. In data set [3], the “mortality of C. elegans” value is “did not induce any mortality”. In data set [4], the “effect of pure ketone on C. albicans hyphae (Y-H transitions)” value (shortened to “effect of pure ketone … (Y-H transitions)”) is on record as “effectively controlled Y-H transitions”. Also, the “survivability of C. albicans infected C. elegans” value in data set [5] amounted to 50%. The “C. albicans planktonic growth” value in data set [6] (0.005%) is recorded as “without compromising the planktonic growth”. In data set [6] (higher dosage (0.05 or 0.01%), RPMI media), the “C. albicans growth profiles” value is given as “substantial decline in the growth profiles”.
As for `CCCCCC(C)=O` [2-heptanone], the “effect of pure ketone on C. albicans biofilms” value in data set [2] is given as “did not show any notable effect”. The “effect of pure ketone … (Y-H transitions)” value in data set [4] is “did not show any notable effect”.
As for `CCCCCCCC(C)=O` [2-nonanone], the “effect of pure ketone on C. albicans biofilms” value in data set [2] is “did not show any notable effect”. In addition, in data set [4], the “effect of pure ketone … (Y-H transitions)” value is “did not show any notable effect”.

Source of the values: US20240336889A1, “NOMADIC BACTERIA AND USES THEREOF” (The State of Israel, Ministry of Agriculture & Rural …, priority 2021, published 2024).
